Measurements: US12077503B2, “Substituted cyclic amides and their use as herbicides” (FMC CORPORATION, priority 2015, dated 2024)

Legend:
Format in all cases: in vivo
[1] = system: pigweed (Amaranthus retroflexus); assay: Test A postemergence; conditions: Amaranthus retroflexus, post-emergence, 240 h, 125 g ai/ha, postemergence, visual injury rating after approximately 10 d; read-out: Pigweed plant response rating (0 to 100 scale, 0 no effect, 100 complete control)
Outline: (§1)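 Ratings of 0 (no effect) to 100 (complete control) come from visual comparison with untreated controls roughly 10 d after treatment. Test chemicals, formulated in a non-phytotoxic solvent mixture with surfactant, were applied either as a preemergence directed soil spray on seeded soil or postemergence to one- to two-leaf plants 2 to 10 cm tall.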

[2] = system: ragweed (common ragweed, Ambrosia elatior); assay: Test A postemergence; conditions: Ambrosia artemisiifolia, post-emergence, 240 h, 125 g ai/ha, postemergence, visual injury rating after approximately 10 d; read-out: Ragweed plant response rating (0 to 100 scale, 0 no effect, 100 complete control)
Outline: as §1

[3] = system: ryegrass, Italian (Italian ryegrass, Lolium multiflorum); assay: Test A postemergence; conditions: Lolium multiflorum, post-emergence, 240 h, 125 g ai/ha, postemergence, visual injury rating after approximately 10 d; read-out: Ryegrass, Italian plant response rating (0 to 100 scale, 0 no effect, 100 complete control)
Outline: as §1

[4] = system: barnyardgrass (Echinochloa crus-galli); assay: Test A postemergence; conditions: Echinochloa crus-galli, post-emergence, 240 h, 125 g ai/ha, postemergence, visual injury rating after approximately 10 d; read-out: Barnyardgrass plant response rating (0 to 100 scale, 0 no effect, 100 complete control)
Outline: as §1

[5] = system: blackgrass (Alopecurus myosuroides); assay: Test A postemergence; conditions: Alopecurus myosuroides, post-emergence, 240 h, 125 g ai/ha, postemergence, visual injury rating after approximately 10 d; read-out: Blackgrass plant response rating (0 to 100 scale, 0 no effect, 100 complete control)
Outline: as §1

[6] = system: Galium (catchweed bedstraw, Galium aparine); assay: Test A postemergence; conditions: Galium, post-emergence, 240 h, 125 g ai/ha, postemergence, visual injury rating after approximately 10 d; read-out: Galium plant response rating (0 to 100 scale, 0 no effect, 100 complete control)
Outline: as §1

[7] = system: giant foxtail (Setaria faberii); assay: Test A postemergence; conditions: Setaria faberi, post-emergence, 240 h, 125 g ai/ha, postemergence, visual injury rating after approximately 10 d; read-out: Foxtail, Giant plant response rating (0 to 100 scale, 0 no effect, 100 complete control)
Outline: as §1

[8] = system: wheat (Triticum aestivum); assay: Test A postemergence; conditions: Triticum aestivum, post-emergence, 240 h, 125 g ai/ha, postemergence, visual injury rating after approximately 10 d; read-out: Wheat plant response rating (0 to 100 scale, 0 no effect, 100 complete control)
Outline: as §1

corn (Zea mays) = assay: Test A postemergence; conditions: Zea mays, post-emergence, 240 h, 125 g ai/ha, postemergence, visual injury rating after approximately 10 d; read-out: Corn plant response rating (0 to 100 scale, 0 no effect, 100 complete control)
Outline: as §1

Kochia (Kochia scoparia) [9] = assay: Test A postemergence; conditions: Bassia scoparia, post-emergence, 240 h, 125 g ai/ha, postemergence, visual injury rating after approximately 10 d; read-out: Kochia plant response rating (0 to 100 scale, 0 no effect, 100 complete control)
Outline: as §1

[10] = system: pigweed (Amaranthus retroflexus); assay: Test A preemergence; conditions: Amaranthus retroflexus, pre-emergence, 240 h
[11] = system: ragweed (common ragweed, Ambrosia elatior); assay: Test A preemergence; conditions: Ambrosia artemisiifolia, pre-emergence, 240 h
Outline: as §1

[12] = system: ryegrass, Italian (Italian ryegrass, Lolium multiflorum); assay: Test A preemergence; conditions: Lolium multiflorum, pre-emergence, 240 h
Outline: as §1

[13] = system: barnyardgrass (Echinochloa crus-galli); assay: Test A preemergence; conditions: Echinochloa crus-galli, pre-emergence, 240 h
Outline: as §1

Kochia (Kochia scoparia) [14] = assay: Test A preemergence; conditions: Bassia scoparia, pre-emergence, 240 h
Outline: as §1

COc1c(F)ccc([C@H]2CN(C)C(=O)[C@@H]2C(=O)Nc2ccccc2S(C)(=O)=O)c1Cl [Compound 897]
pest or weed control at 125 g/ha [1]: 0%
pest or weed control at 125 g/ha [2]: 20%
pest or weed control at 125 g/ha [3]: 20%
pest or weed control at 125 g/ha [4]: 90%
pest or weed control at 125 g/ha [5]: 30%
pest or weed control at 125 g/ha [6]: 40%
pest or weed control at 125 g/ha [7]: 80%
plant injury at 125 g/ha [8]: 30%
plant injury at 125 g/ha (corn (Zea mays)): 30%
pest or weed control at 125 g/ha (Kochia (Kochia scoparia) [9]): 30%
pest or weed control at 125 g/ha ([10]; 125 g ai/ha, preemergence, 0 to 100 scale where 0 is no effect and 100 is complete control, read-out: Pigweed plant response rating): 30%
pest or weed control at 500 g/ha ([10]; 500 g ai/ha, Preemergence, visual injury vs untreated controls after approximately 10 d, read-out: Pigweed plant response rating (0 to 100 scale where 0 is no effect and 100 is complete control)): 60%
pest or weed control at 125 g/ha ([11]; 125 g ai/ha, preemergence, 0 to 100 scale where 0 is no effect and 100 is complete control, read-out: Ragweed plant response rating): 20%
pest or weed control at 500 g/ha ([11]; 500 g ai/ha, Preemergence, visual injury vs untreated controls after approximately 10 d, read-out: Ragweed plant response rating (0 to 100 scale where 0 is no effect and 100 is complete control)): 60%
pest or weed control at 125 g/ha ([12]; 125 g ai/ha, preemergence, 0 to 100 scale where 0 is no effect and 100 is complete control, read-out: Ryegrass, Italian plant response rating): 20%
pest or weed control at 500 g/ha ([12]; 500 g ai/ha, Preemergence, visual injury vs untreated controls after approximately 10 d, read-out: Ryegrass, Italian plant response rating (0 to 100 scale where 0 is no effect and 100 is complete control)): 50%
pest or weed control at 125 g/ha ([13]; 125 g ai/ha, preemergence, 0 to 100 scale where 0 is no effect and 100 is complete control, read-out: Barnyardgrass plant response rating): 80%
pest or weed control at 500 g/ha ([13]; 500 g ai/ha, Preemergence, visual injury vs untreated controls after approximately 10 d, read-out: Barnyardgrass plant response rating (0 to 100 scale where 0 is no effect and 100 is complete control)): 90%
pest or weed control at 125 g/ha (Kochia (Kochia scoparia) [14]; 125 g ai/ha, preemergence, 0 to 100 scale where 0 is no effect and 100 is complete control, read-out: Kochia plant response rating): 60%
pest or weed control at 500 g/ha (Kochia (Kochia scoparia) [14]; 500 g ai/ha, Preemergence, visual injury vs untreated controls after approximately 10 d, read-out: Kochia plant response rating (0 to 100 scale where 0 is no effect and 100 is complete control)): 90%
